Assay results: publication PMC10541198, “Specific quinone reductase 2 inhibitors reduce metabolic burden and reverse Alzheimer’s disease phenotype in mice” (The Journal of Clinical Investigation, 2023)
“And” between values parts separate entries of the source, which are not always exact repeats. Equal entries are not always repeated.

Columns and labels:
[1] = Drinking rate during chronic ingestion; format: in vivo, mouse; parameters: Sup. Fig. 5-2B, drinking rate: unit: ml/g/day
Experimental: Supplementary Figure 6. Chronic Drinking of 50 mg/kg YB -537 for of 1 Month Causes no Changes
in General Mouse Physiology or Behavior but Improves Nesting Behavior Over Time.
(A) Weight of male and female, 8–9- month-old 5xFAD mice over the course of 25 days while consuming
(B) Drinking rate of water or YB-537 in the cages of the 5xFAD mice. […]

Sprague Dawley rats = test: Incidental novel taste learning, microinjection to anterior insular cortex; format: in vivo, rat; settings: 1 μL of 20 μM to aIC
Experimental: In order to evaluate the efficacy of some of the leading QR2is in vivo, we carried out double-blind experiments using 2 different modalities (Supplemental Methods), measuring memory that is dependent on different brain areas. First, cortical memory was tested using incidental novel taste learning (see Methods), in which an unfamiliar, but palatable and safe, taste is given for the first time, and the memory for this newly learned taste is then assessed 2 days later. This is done by measuring the volume of the taste consumed upon subsequent exposure to it ([32]) (Figure 4A). […] Next, hippocampal-dependent learning was evaluated using delay fear conditioning (DFC; see Methods) ([33]). […] In order to evaluate any possible effect of acute QR2i microinjection on metabolic stress in the mouse brain, ISR activation was measured by quantifying total and phosphorylated eukaryotic initiation factor 2 α (eIF2α) levels (Supplemental Figure 3A) and lipid peroxidation product, 4-hydroxynonenal (4-HNE; Supplemental Figure 3B), by immunoblot 3 hours after the injection.
Rats were taught to drink from 2 pipettes each filled with 10 mL of water during a 20 minute period, over 3 days. […] The memory for the novel taste was then assessed after 20 minutes of liquid consumption by calculating a preference index as follows: (novel taste consumed/[novel taste consumed+water consumed]) × 100 ([32], [56]). […]

## Cc1ccc(-c2cn3cccc(C)c3n2)cc1S(=O)(=O)N1CCNCC1 [YB-537]
[1]; 5xFAD females
  average drinking rate: 0.170 ± 0.011 mL/g/day
[1]; 5xFAD males
  average drinking rate: 0.170 ± 0.035 mL/g/day
[1]; Female
  Sup. Fig. 5-2B, drinking rate: 0.159 and 0.182
[1]; Male
  Sup. Fig. 5-2B, drinking rate: 0.207 and 0.135

## Cc1ccc(-c2cn3cccc(C)c3n2)cc1S(=O)(=O)N1CCCC1 [YB-808]
Sprague Dawley rats
  NaCl preference (individual rats): 38.6905 and 81.6144 and 53.3708 and 75.5102 and 61.3924 and 79.4286 and 85.6322 and 50.9317 and 62.1118 and 87.6289 and 81.5476 and 81.8182 and 84.5161 and 50.3067 and 72.807 and 50.2703 and 76.5766 and 61.9048
